Consider one compound from ChEMBL document CHEMBL5338715, “Identification of (S)-1-(2-(2,4-difluorophenyl)-4-oxothiazolidin-3-yl)-3-(4-((7-(3-(4-ethylpiperazin-1-yl)propoxy)-6-methoxyquinolin-4-yl)oxy)-3,5-difluorophenyl)urea as a potential anti-colorectal cancer agent” (Eur J Med Chem, 2022).

Active and inactive are the calls of the source.

The test system of data set [1] is COLO 205. Kind of data set: Induction of apoptosis in human COLO 205 cells assessed as viable cells at […] incubated for 72 hrs by Annexin FITC-A staining based flow cytometry (reference value: 78.7 %). The settings on record: dose 0.11 µM, read-out: Activity. In kind it is functional. (In general: A flow cytometer gives signals particle by particle.)
In data set [2] the test system is COLO 205. The data set is described as follows: Induction of apoptosis in human COLO 205 cells assessed as early apoptotic cells at […] incubated for 72 hrs by Annexin FITC-A staining based flow cytometry (reference value: 2.54 %). In kind it is functional. Particulars: dose 0.11 µM.
Data set [3] concerns COLO 205. The data set is described as follows: Induction of apoptosis in human COLO 205 cells assessed as early apoptotic cells at 0.33 uM incubated for 72 hrs by Annexin FITC-A staining based flow cytometry (reference value: 2.54 %). In kind it is functional.
The nature of data set [4]: Cytotoxicity against human FHC cells assessed as cell growth inhibition by MTT assay. In kind it is toxicity, cell-based.
For data set [5], the system named is COLO 205. The data set is described as follows: Induction of apoptosis in human COLO 205 cells assessed as viable cells at 1 uM incubated for 72 hrs by Annexin FITC-A staining based flow cytometry (reference value: 78.7 %). The class given is functional. The settings on record: read-out: Activity.
For data set [6], the system named is COLO 205. Kind of data set: Induction of apoptosis in human COLO 205 cells assessed as viable cells at 0.037 uM incubated for 72 hrs by Annexin FITC-A staining based flow cytometry (reference value: 78.7 %). Particulars: read-out: Activity. In kind it is functional.
Data set [7] deals with COLO 205. The data set is described as follows: Induction of apoptosis in human COLO 205 cells assessed as necrotic cells at 0.037 uM incubated for 72 hrs by Annexin FITC-A staining based flow cytometry (reference value: 9.65 %). The class given is functional.
For data set [8], the system named is COLO 205. Kind of data set: Induction of apoptosis in human COLO 205 cells assessed as late apoptotic cells at 1 uM incubated for 72 hrs by Annexin FITC-A staining based flow cytometry (reference value: 9.15 %). The class given is functional.
Data set [9] has as its system COLO 205. Kind of data set: Induction of apoptosis in human COLO 205 cells assessed as necrotic cells at 1 uM incubated for 72 hrs by Annexin FITC-A staining based flow cytometry (reference value: 9.65 %). In kind it is functional.
The test system of data set [10] is COLO 205. Kind of data set: Induction of apoptosis in human COLO 205 cells assessed as early apoptotic cells at 0.037 uM incubated for 72 hrs by Annexin FITC-A staining based flow cytometry (reference value: 2.54 %). The class given is functional.
Data set [11] concerns COLO 205. Kind of data set: Induction of apoptosis in human COLO 205 cells assessed as necrotic cells at […] incubated for 72 hrs by Annexin FITC-A staining based flow cytometry (reference value: 9.65 %). In kind it is functional. Particulars: dose 0.11 µM.
Data set [12] relates to COLO 205. The data set is described as follows: Induction of cell cycle arrest in human COLO 205 cells assessed as accumulation at G1 phase at 0.037 uM incubated for 24 hrs by flow cytometry (reference value: 47.9 %). In kind it is functional.
Data set [13] relates to COLO 205. The data set is described as follows: Induction of apoptosis in human COLO 205 cells assessed as late apoptotic cells at 0.33 uM incubated for 72 hrs by Annexin FITC-A staining based flow cytometry (reference value: 9.15 %). The class given is functional.
Data set [14] has as its system COLO 205. Kind of data set: Induction of apoptosis in human COLO 205 cells assessed as late apoptotic cells at 0.037 uM incubated for 72 hrs by Annexin FITC-A staining based flow cytometry (reference value: 9.15 %). The class given is functional.
Data set [15] relates to COLO 205. The data set is described as follows: Induction of apoptosis in human COLO 205 cells assessed as late apoptotic cells at […] incubated for 72 hrs by Annexin FITC-A staining based flow cytometry (reference value: 9.15 %). The class given is functional. The settings on record: dose 0.11 µM.
Data set [16] in a line: Metabolic stability in human liver microsomes assessed as half life at 1 uM measured upto 45 mins in presence of NADPH by LC-MS/MS analysis. The class given is ADME, Microsome.
Data set [17] deals with COLO 205. Kind of data set: cells. The settings on record: Homo sapiens.
Data set [18] has as its system COLO 205. Kind of data set: Induction of apoptosis in human COLO 205 cells assessed as viable cells at 0.33 uM incubated for 72 hrs by Annexin FITC-A staining based flow cytometry (reference value: 78.7 %). In kind it is functional. The settings on record: read-out: Activity.
The test system of data set [19] is COLO 205. Kind of data set: Induction of apoptosis in human COLO 205 cells assessed as necrotic cells at 0.33 uM incubated for 72 hrs by Annexin FITC-A staining based flow cytometry (reference value: 9.65 %). The class given is functional.
In data set [20] the test system is COLO 205. Kind of data set: Induction of cell cycle arrest in human COLO 205 cells assessed as accumulation at S phase at 0.037 uM incubated for 24 hrs by flow cytometry (reference value: 40.8 %). The class given is functional.
In data set [21] the test system is COLO 205. The data set is described as follows: Induction of cell death in human COLO 205 cells at 0.11 to 1 uM incubated for 24 hrs by flow cytometry. The class given is functional, cell-based. The settings on record: dose 0.11-1 µM.
The subject of data set [22] is COLO 205. Kind of data set: Induction of cell cycle arrest in human COLO 205 cells assessed as accumulation at G2 phase at 0.037 uM incubated for 24 hrs by flow cytometry (reference value: 6.8 %). The class given is functional.
The subject of data set [23] is COLO 205. The data set is described as follows: Induction of apoptosis in human COLO 205 cells assessed as early apoptotic cells at 1 uM incubated for 72 hrs by Annexin FITC-A staining based flow cytometry (reference value: 2.54 %). The class given is functional.

For the compound `CCN1CCN(CCCOc2cc3nccc(Oc4c(F)cc(NC(=O)NN5C(=O)CS[C@H]5c5ccc(F)cc5F)cc4F)c3cc2OC)CC1`, in the data set on COLO 205 [1], the viability at […] is 23.1%. For the same compound, the Activity was 6.29% with COLO 205 [2]; 5.19% in the data set with COLO 205 [3]; 5.23% in the data set with COLO 205 [7]; 64.7% in the data set with COLO 205 [8]; 13.9% in the data set on COLO 205 [9]; 6.59% with COLO 205 [10]. Also, the Activity in the data set on COLO 205 [11] is reported as 22.7%; with COLO 205 [12] it was 51.4%; in the data set on COLO 205 [13], 54.4%; in the data set on COLO 205 [14] it was 24.8%; with COLO 205 [15], 47.9%; in the data set with COLO 205 [19], 25%. Moreover, the Activity with COLO 205 [20] stood at 38.3%; in the data set with COLO 205 [22], 6.2%; with COLO 205 [23], 7.41%. Also, the IC50 in data set [4] is more than 10 µM; in the data set on COLO 205 [17] it was 0.042 µM. For the same compound, the viability at 1 µM in the data set on COLO 205 [5] came to 14%. Besides, the viability at 0.037 µM in the data set with COLO 205 [6] is 63.4%. In addition, the half-life at 1 µM in [16] turned out to be 2.83 h. Also, the viability at 0.33 µM in the data set with COLO 205 [18] was determined as 15.4%. For the same compound, the outcome in the data set with COLO 205 [21] was Active.

A word on the IC50: it is the midpoint of a concentration-inhibition curve. For orientation: half-life means the time needed for the level to fall by half in the phase considered.
